Two compounds from article PMC3873546, “Two Distinct Determinants of Ligand Specificity in T1R1/T1R3 (the Umami Taste Receptor)” (The Journal of Biological Chemistry, 2013) can be followed below.

Each structure is given as a SMILES string.

The target of assay [1] is T1, hT1R1/mT1R3 (Homo sapiens, UniProt Q7RTX1).
T1 construct: gene TAS1R1; mixed-species heteromer, full-length human T1R1 (841 residues) with mouse T1R3, pEAK10, HEK293T with rG15i2 and mt-apoclytin-II; with Taste receptor type 1 member 3 (Mus musculus)
T1 sequence (Q7RTX1 21-841): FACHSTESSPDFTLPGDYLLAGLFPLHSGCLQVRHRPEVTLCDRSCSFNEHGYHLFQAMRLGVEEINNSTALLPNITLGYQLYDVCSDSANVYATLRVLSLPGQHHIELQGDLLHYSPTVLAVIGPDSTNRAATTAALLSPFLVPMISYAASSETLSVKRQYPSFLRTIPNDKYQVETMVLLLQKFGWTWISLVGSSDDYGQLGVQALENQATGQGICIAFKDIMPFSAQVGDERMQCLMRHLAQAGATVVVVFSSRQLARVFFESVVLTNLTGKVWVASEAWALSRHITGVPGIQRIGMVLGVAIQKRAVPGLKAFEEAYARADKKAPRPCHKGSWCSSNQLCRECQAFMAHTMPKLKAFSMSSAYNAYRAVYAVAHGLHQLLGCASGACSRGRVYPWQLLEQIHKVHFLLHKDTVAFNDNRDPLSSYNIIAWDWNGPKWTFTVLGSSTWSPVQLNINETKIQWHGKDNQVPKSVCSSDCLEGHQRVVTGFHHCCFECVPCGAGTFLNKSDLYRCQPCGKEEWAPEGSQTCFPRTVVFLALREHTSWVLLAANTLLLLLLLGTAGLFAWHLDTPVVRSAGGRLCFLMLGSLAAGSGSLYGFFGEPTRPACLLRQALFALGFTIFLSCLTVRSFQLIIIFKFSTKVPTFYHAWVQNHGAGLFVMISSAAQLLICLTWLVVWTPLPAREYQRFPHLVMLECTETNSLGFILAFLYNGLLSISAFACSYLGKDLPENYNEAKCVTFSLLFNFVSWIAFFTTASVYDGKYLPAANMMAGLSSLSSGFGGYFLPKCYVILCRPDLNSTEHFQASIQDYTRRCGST
T1 sequence (Q925D8 21-858 partner): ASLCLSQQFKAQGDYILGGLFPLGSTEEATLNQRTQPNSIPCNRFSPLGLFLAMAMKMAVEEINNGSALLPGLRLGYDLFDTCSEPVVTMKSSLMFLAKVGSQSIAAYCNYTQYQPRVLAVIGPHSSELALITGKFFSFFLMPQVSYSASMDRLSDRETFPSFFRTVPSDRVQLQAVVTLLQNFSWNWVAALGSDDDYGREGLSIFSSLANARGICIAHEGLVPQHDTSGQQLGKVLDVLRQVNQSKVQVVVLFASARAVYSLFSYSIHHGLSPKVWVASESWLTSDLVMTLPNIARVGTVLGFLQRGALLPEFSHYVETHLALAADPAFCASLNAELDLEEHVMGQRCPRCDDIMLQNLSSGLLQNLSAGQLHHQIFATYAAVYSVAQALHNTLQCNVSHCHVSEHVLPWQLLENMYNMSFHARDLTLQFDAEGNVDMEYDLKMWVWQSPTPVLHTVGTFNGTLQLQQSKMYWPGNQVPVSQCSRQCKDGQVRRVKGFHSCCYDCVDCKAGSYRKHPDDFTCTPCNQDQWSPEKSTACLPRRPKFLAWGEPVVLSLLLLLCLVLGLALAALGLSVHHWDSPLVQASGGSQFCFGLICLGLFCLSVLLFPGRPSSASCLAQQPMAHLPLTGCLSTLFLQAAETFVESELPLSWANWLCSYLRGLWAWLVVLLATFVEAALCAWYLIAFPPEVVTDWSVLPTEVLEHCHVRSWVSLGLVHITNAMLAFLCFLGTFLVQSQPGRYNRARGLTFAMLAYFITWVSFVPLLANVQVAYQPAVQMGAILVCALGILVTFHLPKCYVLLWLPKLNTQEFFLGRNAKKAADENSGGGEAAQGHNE
Nature of the assay: mt-clytin-II Ca2+ luminescence, HEK293T. The conditions noted are these: dose-response curve and 50 mM response, pH 7.4, no IMP; weak agonist. The assay is classed as cell-based.

The target in assay [2] is T2, squirrel monkey T1R1 (with mT1R3) (Saimiri boliviensis, UniProt A0A2K6TN71).
T2 construct: full-length squirrel monkey T1R1 assembled from genomic exons (liver DNA); HEK293T with mouse T1R3; with Taste receptor type 1 member 3 (Mus musculus)
T2 sequence (A0A2K6TN71 21-841): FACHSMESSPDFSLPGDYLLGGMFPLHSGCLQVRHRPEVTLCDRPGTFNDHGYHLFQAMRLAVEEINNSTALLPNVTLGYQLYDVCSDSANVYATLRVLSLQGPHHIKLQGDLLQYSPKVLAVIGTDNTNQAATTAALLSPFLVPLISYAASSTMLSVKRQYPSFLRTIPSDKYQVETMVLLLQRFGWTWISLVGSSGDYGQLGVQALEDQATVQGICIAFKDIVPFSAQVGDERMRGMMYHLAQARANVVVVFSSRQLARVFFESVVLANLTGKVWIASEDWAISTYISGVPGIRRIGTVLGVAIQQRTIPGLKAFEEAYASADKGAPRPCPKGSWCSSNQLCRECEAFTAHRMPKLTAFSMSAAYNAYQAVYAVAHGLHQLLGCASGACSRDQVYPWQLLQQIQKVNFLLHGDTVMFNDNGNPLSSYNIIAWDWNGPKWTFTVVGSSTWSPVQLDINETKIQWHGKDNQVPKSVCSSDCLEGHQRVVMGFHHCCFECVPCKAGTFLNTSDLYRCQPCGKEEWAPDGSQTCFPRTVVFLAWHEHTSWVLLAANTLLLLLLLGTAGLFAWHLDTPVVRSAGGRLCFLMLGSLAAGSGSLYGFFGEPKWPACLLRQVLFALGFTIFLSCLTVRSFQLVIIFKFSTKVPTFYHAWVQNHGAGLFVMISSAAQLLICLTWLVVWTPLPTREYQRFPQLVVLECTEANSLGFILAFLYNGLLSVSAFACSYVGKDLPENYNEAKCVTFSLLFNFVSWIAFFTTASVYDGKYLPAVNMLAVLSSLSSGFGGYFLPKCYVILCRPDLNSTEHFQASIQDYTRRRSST
T2 sequence (Q925D8 21-858 partner): T1 sequence (Q925D8 21-858 partner)
As to the kind of experiment: mt-clytin-II Ca2+ luminescence, HEK293T. The conditions noted are these: dose-response curve only, pH 7.4, no IMP. It counts as cell-based.

Assay [3] relates to T3, hT1R1(m.371–380) (with mT1R3).
T3 construct: gene TAS1R1
The conditions noted are these: pH 7.4, rG15i2, no IMP; orthosteric site agonist.

Assay [4] concerns T4, baboon T1R1 (with mT1R3).
T4 construct: gene TAS1R1
The conditions noted are these: pH 7.4, rG15i2, no IMP; orthosteric site agonist.

For `C[C@H](N)C(=O)O` [L-Ala], the “mt-clytin-II Ca2+ luminescence, HEK293T” value in assay [1] is listed as “the dose-response curves of human (B), macaque (C), baboon (D)”; in assay [2], “the squirrel monkey T1R1 demonstrated the greatest L-Ala potency among the four primate T1R1 receptors”.

As to `N[C@@H](CCC(=O)O)C(=O)O` [L-Glu], the EC50 (as a rule, the concentration at which the effect is half-maximal) in assay [3] worked out at 110 ± 10 µM; in assay [4], 1800 ± 400 µM.
